Data published in patent publication US20240101589A1, “INHIBITORS OF METTL3” (Strom Therapeutics Limited, priority 2020, published 2024).

System: Caov-3 cells
Assay: Caov3 cell proliferation CTG
Assay type: cell-based
Settings: Homo sapiens, treated for 120 hours, CellTiter-Glo
Protocol: Cell treatment and cell growth assessment: 18 hours post-seeding in white 384-Viewplate (6007480, PerkinElmer) at 1500 cells/well, Caov3 cells were treated for 120 hours with compounds inhibiting the METTL3/14 activity (10 serial semi-log dilutions, 30 μM as top concentration). Upon treatment, Coav-3 cells were incubated for 10 min at RT with the CellTiter-Glo reagent (G7571, Promega). Measurement of the luminescence signal was performed on a microplate reader (Ensight, PerkinElmer).

Row | Structure (SMILES) | IC50 [nM]
1 | Nc1ncnc2c1c(-c1cc[nH]n1)cn2[C@@H]1O[C@H](/C=C/CCCNCC23CC(F)(C2)C3)[C@@H](O)[C@H]1O [Example 20, (2R,3R,4S,5R)-2-[4-amino-5-(1H-pyrazol-3-yl)-7H-pyrrolo[2,3-d]pyrimidin-7-yl]-5-[(1E)-5-[({3-fluorobicyclo[1.1.1]pentan-1-yl}methyl)amino]pent-1-en-1-yl]oxolane-3,4-diol] | 1690

System: KASUMI-1 cells
Assay: Kasumi cell proliferation CTG
Assay type: cell-based
Settings: Homo sapiens, Kasumi 1, 120 h, treated for 120 hours, CellTiter-Glo
Protocol: Cell culture: KASUMI-1 cells (ACC20, Leibniz-Institut DSMZ Deutsche Sammlung von Mikroorganismen und Zellkulturen GmbH) were grown in RPMI 1640 (31870-025, Gibco) supplemented with 20% fetal bovine serum (F1524, Gibco), 1 mM sodium pyruvate (11360-039, Gibco) and 2 mM Glutamax (35050-038, Gibco) in a 5% CO2 humidified incubator at 37° C.
Cell treatment and cell growth assessment: KASUMI-1 cells were seeded in ultra-low attachment 384-well culture plate (MS-9384WZ, SBio) at a final concentration of 250 000 cells/ml (35 μL/well) and treated for 120 hours with compounds inhibiting the METTL3/14 activity (10 serial semi-log dilutions, 30 μM as top concentration). Upon treatment, Kasumi1 cells were incubated for 10 min at RT with the CellTiter-Glo reagent (G7571, Promega). Measurement of the luminescence signal was performed on a microplate reader (Ensight, PerkinElmer).

Row | Structure (SMILES) | IC50 [nM]
2 | Nc1ncnc2c1c(Br)cn2[C@@H]1O[C@H](/C=C/CCCNCC2CC(F)(F)C2)[C@@H](O)[C@H]1O [Example 4, (2R,3R,4S,5R)-2-{4-amino-5-bromo-7H-pyrrolo[2,3-d]pyrimidin-7-yl}-5-[(1E)-5-{[(3,3-difluorocyclobutyl)methyl]amino}pent-1-en-1-yl]oxolane-3,4-diol] | 4800
3 | Nc1ncnc2c1c(Br)cn2[C@@H]1O[C@H](/C=C/C2CC(N)C2)[C@@H](O)[C@H]1O (stereo partly drawn) [Example 17, (2R,3R,4S,5R)-2-{4-amino-5-bromo-7H-pyrrolo[2,3-d]pyrimidin-7-yl}-5-[(1E)-2-(3-aminocyclobutyl)ethenyl]oxolane-3,4-diol] | 12400

Same assay, conditions: treated for 120 hours, CellTiter-Glo

Row | Structure (SMILES) | IC50 [nM]
4 | Nc1ncnc2c1c(Br)cn2[C@@H]1O[C@H](/C=C/CCCNCc2ccccc2)[C@@H](O)[C@H]1O [Example 1, (2R,3R,4S,5R)-2-(4-amino-5-bromo-7H-pyrrolo[2,3-d]pyrimidin-7-yl)-5-((E)-5-(benzylamino)pent-1-en-1-yl)tetrahydrofuran-3,4-diol] | 4900

Molecular target: METTL3/14 (Homo sapiens (Human), UniProt Q86U44)
Sequence (Q86U44 whole entry): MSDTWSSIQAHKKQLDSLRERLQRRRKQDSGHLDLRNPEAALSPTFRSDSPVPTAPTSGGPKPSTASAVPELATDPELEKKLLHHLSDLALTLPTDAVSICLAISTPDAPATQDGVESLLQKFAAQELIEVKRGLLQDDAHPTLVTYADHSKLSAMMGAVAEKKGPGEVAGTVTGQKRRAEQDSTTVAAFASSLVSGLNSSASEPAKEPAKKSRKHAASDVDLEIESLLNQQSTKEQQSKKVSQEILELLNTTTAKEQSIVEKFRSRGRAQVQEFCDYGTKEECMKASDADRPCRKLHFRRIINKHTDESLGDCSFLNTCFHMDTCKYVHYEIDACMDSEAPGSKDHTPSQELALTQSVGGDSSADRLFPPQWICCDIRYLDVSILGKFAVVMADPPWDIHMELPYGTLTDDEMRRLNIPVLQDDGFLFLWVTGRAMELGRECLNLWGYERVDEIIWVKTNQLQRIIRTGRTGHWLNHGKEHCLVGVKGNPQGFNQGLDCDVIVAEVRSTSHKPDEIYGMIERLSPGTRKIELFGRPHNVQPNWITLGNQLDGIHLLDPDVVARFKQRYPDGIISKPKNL
Sequence (Q9HCE5 whole entry partner): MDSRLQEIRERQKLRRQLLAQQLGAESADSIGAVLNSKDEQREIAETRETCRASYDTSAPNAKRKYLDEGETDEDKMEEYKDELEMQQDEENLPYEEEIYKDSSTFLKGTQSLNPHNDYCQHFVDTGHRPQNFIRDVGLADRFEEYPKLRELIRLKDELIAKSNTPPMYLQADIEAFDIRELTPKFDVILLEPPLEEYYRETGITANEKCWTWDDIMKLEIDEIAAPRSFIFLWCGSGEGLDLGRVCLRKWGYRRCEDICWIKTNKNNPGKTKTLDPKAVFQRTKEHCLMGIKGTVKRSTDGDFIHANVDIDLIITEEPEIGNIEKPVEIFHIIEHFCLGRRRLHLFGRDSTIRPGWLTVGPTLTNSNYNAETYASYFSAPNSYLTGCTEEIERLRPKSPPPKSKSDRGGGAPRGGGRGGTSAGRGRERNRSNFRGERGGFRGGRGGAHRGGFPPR
Assay: METTL3/14 methyltransferase assay (RapidFire mass spectrometry, RFMS)
Assay type: biochemical
Settings: 5 nM METTL3/14, 0.2 μM RNA substrate, 0.5 μM SAM, 60 minutes at room temperature
Protocol: The enzymatic assay was established to determine IC50 values for inhibition of RNA methyltransferase activity. The enzyme used was full-length his-tagged METTL3 co-expressed with full length FLAG-tagged METTL14 in a baculovirus expression system. Enzymatic reactions were performed at room temperature in 384-well plates using a final reaction volume of 20 μL containing 20 mM TrisCl pH 7.6, 1 mM DTT, 0.01% Tween-20. 5 nM final concentration of METTL3/14 was pre-incubated with various compound concentrations for 10 minutes, followed by addition of 0.2 μM final concentration synthetic RNA substrate (5′P-[…]-3′) and 0.5 μM final concentration S-adenosyl-methionine (SAM). The reaction was incubated for a further 60 minutes at room temperature, and then quenched by the addition of 40 μL 7.5% TCA with two internal product standards (D4-SAH and 13C10-SAH). After termination, plates were sealed, centrifuged and stored at 4° C. until analysis.
RNA methyltransferase activity was measured label free using the RapidFire™ mass spectrometry (RF/MS) platform. Stopped and stable assay plates were analyzed on the Agilent RF300 integrated autosampler/solid-phase extraction (SPE) system coupled to an ABSciex 4000 mass spectrometer for the generation of the product S-adenosyl homocysteine (SAH) and normalized to the ratio of signal of the two internal product standards, respectively. Solvent A was water containing 0.1% (v/v) TCA. Solvent B was acetonitrile/0.1% ammonium acetate (8:2, v/v). More specifically, plates were centrifuged at 4350 rpm for 10 min, samples were aspirated under vacuum for 600 ms, then loaded onto a C18 solid-phase extraction cartridge and washed for 3 s with solvent A at a flow rate of 1.5 mL/min. Retained product and internal standards were eluted with solvent B at a flow rate of 1 mL/min for 3 s and finally the cartridge was re-equilibrated with solvent A for 500 ms. The mass transition for the product (SAH) was 384.9/135.9 Da. Transitions of the two internal product standards (IS1: D4-SAH and IS2: 13C10-SAH) were 389.1/135.8 Da and 395.0/134.2 Da, respectively. Ratios of SAH/IS1 and SAH/IS2 were used for normalization of matrix effects. IC50 values were calculated based on dilution series of individual compounds. Potency of a compound was measured at varied inhibitor concentrations and normalized to control wells without RNA substrate and without inhibition (DMSO only).

Row | IC50 [nM] | Structure (SMILES)
5 | 231 | Nc1ncnc2c1c(Br)cn2[C@@H]1O[C@H](/C=C/CCCN2CCC(F)CC2)[C@@H](O)[C@H]1O [Example 24, (2R,3R,4S,5R)-2-{4-amino-5-bromo-7H-pyrrolo[2,3-d]pyrimidin-7-yl}-5-[(1E)-5-(4-fluoropiperidin-1-yl)pent-1-en-1-yl]oxolane-3,4-diol]
6 | 44.8 | Nc1ncnc2c1c(Br)cn2[C@@H]1O[C@H](/C=C/CCCNCc2ccccc2)[C@@H](O)[C@H]1O [Example 1, (2R,3R,4S,5R)-2-(4-amino-5-bromo-7H-pyrrolo[2,3-d]pyrimidin-7-yl)-5-((E)-5-(benzylamino)pent-1-en-1-yl)tetrahydrofuran-3,4-diol]
7 | 6.1 | Nc1ncnc2c1c(-c1cc[nH]n1)cn2[C@@H]1O[C@H](/C=C/CCCNCC23CC(F)(C2)C3)[C@@H](O)[C@H]1O [Example 20, (2R,3R,4S,5R)-2-[4-amino-5-(1H-pyrazol-3-yl)-7H-pyrrolo[2,3-d]pyrimidin-7-yl]-5-[(1E)-5-[({3-fluorobicyclo[1.1.1]pentan-1-yl}methyl)amino]pent-1-en-1-yl]oxolane-3,4-diol]
8 | 413 | Nc1ncnc2c1c(Br)cn2[C@@H]1O[C@H](/C=C/C2CCNCC2)[C@@H](O)[C@H]1O [Example 14, (2R,3R,4S,5R)-2-{4-amino-5-bromo-7H-pyrrolo[2,3-d]pyrimidin-7-yl}-5-[(1E)-2-(piperidin-4-yl)ethenyl]oxolane-3,4-diol]
9 | 453 | Nc1ncnc2c1c(Br)cn2[C@@H]1O[C@H](/C=C/C2CCNC2)[C@@H](O)[C@H]1O (stereo partly drawn) [Example 16, (2R,3R,4S,5R)-2-{4-amino-5-bromo-7H-pyrrolo[2,3-d]pyrimidin-7-yl}-5-[(1E)-2-(pyrrolidin-3-yl)ethenyl]oxolane-3,4-diol]
10 | 2930 | Nc1ncnc2c1c(Br)cn2[C@@H]1O[C@H](/C=C/C2COC2)[C@@H](O)[C@H]1O [Example 18, (2R,3R,4S,5R)-2-{4-amino-5-bromo-7H-pyrrolo[2,3-d]pyrimidin-7-yl}-5-[(1E)-2-(oxetan-3-yl)ethenyl]oxolane-3,4-diol]
11 | 1090 | Nc1ncnc2c1c(Br)cn2[C@@H]1O[C@H](/C=C/CCCN2CCOCC2)[C@@H](O)[C@H]1O [Example 25, (2R,3R,4S,5R)-2-{4-amino-5-bromo-7H-pyrrolo[2,3-d]pyrimidin-7-yl}-5-[(1E)-5-(morpholin-4-yl)pent-1-en-1-yl]oxolane-3,4-diol]
12 | 63.5 | Nc1ncnc2c1c(Br)cn2[C@@H]1O[C@H](/C=C/CCCN2CCC(F)(F)CC2)[C@@H](O)[C@H]1O [Example 23, (2R,3R,4S,5R)-2-{4-amino-5-bromo-7H-pyrrolo[2,3-d]pyrimidin-7-yl}-5-[(1E)-5-(4,4-difluoropiperidin-1-yl)pent-1-en-1-yl]oxolane-3,4-diol]
13 | 1310 | Nc1ncnc2c1c(Br)cn2[C@@H]1O[C@H](/C=C/C2CC(N)C2)[C@@H](O)[C@H]1O (stereo partly drawn) [Example 17, (2R,3R,4S,5R)-2-{4-amino-5-bromo-7H-pyrrolo[2,3-d]pyrimidin-7-yl}-5-[(1E)-2-(3-aminocyclobutyl)ethenyl]oxolane-3,4-diol]
14 | 7930 | Nc1ncnc2c1c(Br)cn2[C@@H]1C[C@H](c2cccc(C(=O)NCC34CC(F)(C3)C4)c2)[C@@H](O)[C@H]1O [Example 40, 3-[(1R,2R,3S,4R)-4-{4-amino-5-bromo-7H-pyrrolo[2,3-d]pyrimidin-7-yl}-2,3-dihydroxycyclopentyl]-N-({3-fluorobicyclo[1.1.1]pentan-1-yl}methyl)benzamide]
15 | 505 | NCCC/C=C/[C@H]1O[C@@H](n2cc(Br)c3c(N)ncnc32)[C@H](O)[C@@H]1O [Example 8, (2R,3R,4S,5R)-2-{4-amino-5-bromo-7H-pyrrolo[2,3-d]pyrimidin-7-yl}-5-[(1E)-5-aminopent-1-en-1-yl]oxolane-3,4-diol]
16 | 351 | Nc1ncnc2c1c(Br)cn2[C@@H]1O[C@H](/C=C/CCCN2CCCC(F)C2)[C@@H](O)[C@H]1O (stereo partly drawn) [Example 26, (2R,3R,4S,5R)-2-{4-amino-5-bromo-7H-pyrrolo[2,3-d]pyrimidin-7-yl}-5-[(1E)-5-(3-fluoropiperidin-1-yl)pent-1-en-1-yl]oxolane-3,4-diol]
17 | 568 | NCC/C=C/[C@H]1O[C@@H](n2cc(Br)c3c(N)ncnc32)[C@H](O)[C@@H]1O [Example 7, (2R,3R,4S,5R)-2-{4-amino-5-bromo-7H-pyrrolo[2,3-d]pyrimidin-7-yl}-5-[(1E)-4-aminobut-1-en-1-yl]oxolane-3,4-diol]
18 | 19.7 | Nc1ncnc2c1c(Br)cn2[C@@H]1O[C@H](/C=C/CCCNCC23CC(F)(C2)C3)[C@H](F)[C@H]1O [Example 28, (2R,3S,4R,5R)-2-{4-amino-5-bromo-7H-pyrrolo[2,3-d]pyrimidin-7-yl}-4-fluoro-5-[(1E)-5-[({3-fluorobicyclo[1.1.1]pentan-1-yl}methyl)amino]pent-1-en-1-yl]oxolan-3-ol]
19 | 9.6 | Nc1ncnc2c1c(Br)cn2[C@@H]1O[C@H](/C=C/CCCNCC23CC(F)(C2)C3)C[C@H]1O [Example 27, (2R,3R,5S)-2-{4-amino-5-bromo-7H-pyrrolo[2,3-d]pyrimidin-7-yl}-5-[(1E)-5-[({3-fluorobicyclo[1.1.1]pentan-1-yl}methyl)amino]pent-1-en-1-yl]oxolan-3-ol]
20 | 351 | Nc1ncnc2c1c(Br)cn2[C@@H]1O[C@H](/C=C/C2CCCNC2)[C@@H](O)[C@H]1O (stereo partly drawn) [Example 15, (2R,3R,4S,5R)-2-{4-amino-5-bromo-7H-pyrrolo[2,3-d]pyrimidin-7-yl}-5-[(1E)-2-(piperidin-3-yl)ethenyl]oxolane-3,4-diol]
21 | 60 | Nc1ncnc2c1c(Br)cn2[C@@H]1O[C@H](/C=C/CCCNCC23CC(F)(C2)C3)[C@@H](O)[C@H]1F [Example 41, (2R,3R,4R,5R)-5-{4-amino-5-bromo-7H-pyrrolo[2,3-d]pyrimidin-7-yl}-4-fluoro-2-[(1E)-5-[({3-fluorobicyclo[1.1.1]pentan-1-yl}methyl)amino]pent-1-en-1-yl]oxolan-3-ol]
22 | 317 | Nc1ncnc2c1c(Br)cn2[C@@H]1O[C@H](/C=C/CCNCc2ccccc2)[C@@H](O)[C@H]1O [Example 3, (2R,3R,4S,5R)-2-{4-amino-5-bromo-7H-pyrrolo[2,3-d]pyrimidin-7-yl}-5-[(1E)-4-(benzylamino)but-1-en-1-yl]oxolane-3,4-diol]
23 | 522 | Nc1ncnc2c1c(Br)cn2[C@@H]1O[C@H](/C=C/CC2CNC2)[C@@H](O)[C@H]1O [Example 19, (2R,3R,4S,5R)-2-{4-amino-5-bromo-7H-pyrrolo[2,3-d]pyrimidin-7-yl}-5-[(1E)-3-(azetidin-3-yl)prop-1-en-1-yl]oxolane-3,4-diol]
24 | 460 | Nc1ncnc2c1c(Br)cn2[C@@H]1O[C@H](/C=C/C2CNC2)[C@@H](O)[C@H]1O [Example 13, (2R,3R,4S,5R)-2-{4-amino-5-bromo-7H-pyrrolo[2,3-d]pyrimidin-7-yl}-5-[(1E)-2-(azetidin-3-yl)ethenyl]oxolane-3,4-diol]
